Results as given in patent US20200121677A1, “SUBSTITUTED 6,7-DIHYDROPYRAZOLO[1,5-a]PYRAZINES AS NEGATIVE ALLOSTERIC MODULATORS OF MGLUR2 RECEPTORS” (Janssen Pharmaceutica NV, priority 2014, published 2020).

Biological target: human mGlu2 receptor (Homo sapiens, UniProt Q14416)
Experiment: [35S]GTPγS binding assay, mGluR2 negative allosteric modulation (membranes from CHO cells transfected with human mGlu2 receptor, glutamate ~EC80 60 μM);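 note: membranes preincubated 30 min at 30 °C with compound plus glutamate, then [35S]GTPγS (0.1 nM) incorporation measured over another 30 min at 30 °C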
Conditions: for GTPγS - hmGluR2 anGT pIC50: membranes with human mGlu2 receptor; for GTPγS - hmGluR2 anGT pIC50 / IC50: glutamate ~EC80 (60 μM), pIC50 = -log IC50 (M); for GTPγS - hmGluR2 anGT Emax: relative maximal effect: maximal % inhibition relative to the control glutamate response; for IC50: GTPγS - hmGluR2 anGT pIC50, membranes with human mGlu2 receptor; for Emax: read-out: GTPγS - hmGluR2 anGT Emax, relative maximal effect: maximal % inhibition relative to the control glutamate response
Description: The [^35S]GTPγS binding assay is a functional membrane-based assay used to study G-protein coupled receptor (GPCR) function whereby incorporation of a non-hydrolysable form of GTP, [^35S]GTPγS (guanosine 5′-triphosphate, labelled with gamma-emitting ^35S), is measured. […] Here we describe the use of the [^35S]GTPγS binding assay using membranes from cells transfected with the human mGlu2 receptor and adapted from Schaffhauser et al. (Molecular Pharmacology, 2003, 4:798-810) for the detection of the negative allosteric modulation (NAM) properties of the compounds of this invention.
CHO-cells were cultured to pre-confluence and stimulated with 5 mM butyrate for 24 h. Cells were then collected by scraping in PBS and cell suspension was centrifuged (10 min at 4000 RPM in benchtop centrifuge). Supernatant was discarded and pellet gently resuspended in 50 mM Tris-HCl, pH 7.4 by mixing with an Ultra Turrax homogenizer. The suspension was centrifuged at 12,400 RPM (Sorvall F14S-6x250Y) for 10 minutes and the supernatant discarded. The pellet was homogenized in 5 mM Tris-HCl, pH 7.4 using an Ultra Turrax homogenizer and centrifuged again (13,000 RPM, 20 min, 4° C.). The final pellet was resuspended in 50 mM Tris-HCl, pH 7.4 and stored at −80° C. in appropriate aliquots before use. Protein concentration was determined by the Bradford method (Bio-Rad, USA) with bovine serum albumin as standard.
Measurement of mGluR2 negative allosteric modulatory activity of test compounds was performed as follows. Test compounds and glutamate were diluted in assay buffer containing 10 mM HEPES acid, 10 mM HEPES salt, pH 7.4, 100 mM NaCl, 3 mM MgCl2 and 10 μM GDP. Human mGlu2 receptor-containing membranes were thawed on ice and diluted in assay buffer supplemented with 18 μg/ml saponin. Membranes were pre-incubated with compound together with a predefined (˜EC80) concentration of glutamate (60 μM) for 30 min at 30° C. After addition of [^35S]GTPγS (f.c. 0.1 nM), assay mixtures were shaken briefly and further incubated to allow [^35S]GTPγS incorporation on activation (30 minutes, 30° C.). Final assay mixtures contained 7 μg of membrane protein in 10 mM HEPES acid, 10 mM HEPES salt, pH 7.4, 100 mM NaCl, 3 mM MgCl2, 10 μM GDP and 10 μg/ml saponin. Total reaction volume was 200 μl. Reactions were terminated by rapid filtration through Unifilter-96 GF/B plates (Perkin Elmer, Massachusetts, USA) using a 96-well filtermate universal harvester. Filters were washed 6 times with ice-cold 10 mM NaH2PO4/10 mM Na2HPO4, pH 7.4. Filters were then air-dried, and 30 μl of liquid scintillation cocktail (Microscint-O) was added to each well. Membrane-bound radioactivity was counted in a Topcount.
Data were calculated as % of the control glutamate response, defined as the response that is generated upon addition of an EC80-equivalent concentration of glutamate.

Sequence of human mGlu2 receptor (Q14416 19-872): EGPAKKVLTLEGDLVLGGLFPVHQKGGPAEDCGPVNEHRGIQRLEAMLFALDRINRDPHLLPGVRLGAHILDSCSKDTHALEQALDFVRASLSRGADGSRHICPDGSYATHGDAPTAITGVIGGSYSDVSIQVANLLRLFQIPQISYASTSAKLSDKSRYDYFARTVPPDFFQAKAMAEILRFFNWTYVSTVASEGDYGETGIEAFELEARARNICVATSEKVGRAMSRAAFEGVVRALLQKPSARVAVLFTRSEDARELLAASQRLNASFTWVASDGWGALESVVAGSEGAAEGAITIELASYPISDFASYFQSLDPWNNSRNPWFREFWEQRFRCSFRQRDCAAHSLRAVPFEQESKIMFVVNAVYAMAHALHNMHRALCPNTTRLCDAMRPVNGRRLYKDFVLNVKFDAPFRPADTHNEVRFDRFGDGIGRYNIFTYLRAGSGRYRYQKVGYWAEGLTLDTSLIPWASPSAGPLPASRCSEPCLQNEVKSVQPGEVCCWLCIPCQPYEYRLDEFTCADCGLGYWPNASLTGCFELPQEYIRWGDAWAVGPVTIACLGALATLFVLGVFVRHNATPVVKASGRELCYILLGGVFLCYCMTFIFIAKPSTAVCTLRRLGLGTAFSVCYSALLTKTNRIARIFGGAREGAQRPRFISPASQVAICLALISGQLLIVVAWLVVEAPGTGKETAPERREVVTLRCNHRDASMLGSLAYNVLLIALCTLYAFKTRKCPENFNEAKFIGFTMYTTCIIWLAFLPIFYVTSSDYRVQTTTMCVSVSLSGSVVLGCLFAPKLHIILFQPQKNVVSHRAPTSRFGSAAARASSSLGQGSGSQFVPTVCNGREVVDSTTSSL

## COCC1CN(c2ccc(C(F)(F)F)cc2)C(=O)c2c(C(=O)Nc3cccnc3)cnn21 (racemic) [compound 165]
  GTPγS - hmGluR2 anGT pIC50: 8.03
  GTPγS - hmGluR2 anGT Emax: 106%

## COCC1CN(c2ccc(C(F)(F)F)cc2)C(=O)c2c(C(=O)Nc3cnccn3)cnn21 (single isomer, unassigned) [compound 155]
  GTPγS - hmGluR2 anGT pIC50: 6.48
  GTPγS - hmGluR2 anGT Emax: 106%

## COCC1CN(c2ccc(C(F)(F)F)c(Cl)c2)C(=O)c2c(C(=O)Nc3cccnc3)cnn21 (single isomer, unassigned) [compound 157]
  IC50: 2.82e-07 M
  Emax: 104%

## COCC1CN(c2ccc(C(F)(F)F)cc2)C(=O)c2c(C(=O)Nc3cccnc3)cnn21 (single isomer, unassigned) [compound 159]
  GTPγS - hmGluR2 anGT pIC50: 6.10
  GTPγS - hmGluR2 anGT Emax: 108%

## C[C@H]1CN(c2ccc(C(F)(F)F)cc2)C(=O)c2c(C(=O)Nc3cncc(F)c3)cnn21 [13a]
  IC50: 1.1e-09 M
  GTPγS - hmGluR2 anGT Emax: 106%

## C[C@H]1CN(c2ccc(C(F)(F)F)cc2)C(=O)c2c(C(=O)Nc3ncccc3F)cnn21 [compound 12]
  IC50: 4.79e-08 M
  Emax: 110%

## Cc1cccc(NC(=O)c2cnn3c2C(=O)N(c2ccc(C(F)(F)F)cc2)C[C@@H]3C)n1 [compound 17]
  GTPγS - hmGluR2 anGT pIC50: 7.39
  GTPγS - hmGluR2 anGT Emax: 107%

## C[C@H]1CN(c2ccc(C(F)(F)F)c(CF)c2)C(=O)c2c(C(=O)Nc3cccnc3)cnn21 [compound 53]
  GTPγS - hmGluR2 anGT pIC50: 8.61
  GTPγS - hmGluR2 anGT Emax: 114%

## C[C@H]1CN(c2ccc(C(F)(F)F)cc2)C(=O)c2c(C(=O)Nc3ccc(F)nc3)cnn21 [compound 55, (7S)—N-(6-fluoro-3-pyridyl)-7-methyl-4-oxo-5-[4-(trifluoromethyl)phenyl]-6,7-dihydropyrazolo[1,5-a]pyrazine-3-carboxamide]
  IC50: 5.62e-09 M
  Emax: 101%

## C[C@H]1CN(c2ccc(Cl)c(Cl)c2)C(=O)c2c(C(=O)Nc3ccc(F)nc3)cnn21 [compound 56]
  GTPγS - hmGluR2 anGT pIC50: 8.53
  GTPγS - hmGluR2 anGT Emax: 104%

## C[C@H]1CN(c2ccc(C(F)(F)F)cc2)C(=O)c2c(C(=O)Nc3ccccc3)cnn21 [compound 57, (7S)-7-Methyl-4-oxo-N-phenyl-5-[4-(trifluoromethyl)phenyl]-6,7-dihydropyrazolo[1,5-a]pyrazine-3-carboxamide]
  IC50: 1.7e-09 M
  Emax: 102%

## C[C@H]1CN(c2ccc(C(F)(F)F)cc2)C(=O)c2c(C(=O)NC3CCOCC3)cnn21 [compound 66]
  IC50: 1.86e-07 M
  Emax: 103%

## C[C@H]1CN(c2ccc(C(F)(F)F)cc2)C(=O)c2c(C(=O)NCc3ccccc3)cnn21 [compound 67]
  IC50: 2e-07 M
  Emax: 104%

## C[C@H]1CN(c2ccc(C(F)(F)F)cc2)C(=O)c2c(C(=O)NC(C)(C)C)cnn21 [compound 68]
  IC50: 2.63e-07 M
  Emax: 102%

## CNC(=O)c1cnn2c1C(=O)N(c1ccc(C(F)(F)F)cc1)C[C@@H]2C [compound 69]
  IC50: 4.57e-07 M
  Emax: 103%

## COc1ccc(NC(=O)c2cnn3c2C(=O)N(c2ccc(C(F)(F)F)cc2)C[C@@H]3C)nc1 [compound 102]
  GTPγS - hmGluR2 anGT pIC50: 7.67
  GTPγS - hmGluR2 anGT Emax: 112%

## C[C@H]1CN(c2ccc(C(F)(F)F)cc2)C(=O)c2c(C(=O)NC=O)cnn21 [compound 134]
  IC50: 6.31e-08 M
  Emax: 103%

## Cc1cc(C(=O)NC(=O)c2cnn3c2C(=O)N(c2ccc(C(F)(F)F)cc2)C[C@@H]3C)ccn1 [compound 135, (7S)-7-Methyl-N-(2-methylpyridine-4-carbonyl)-4-oxo-5-[4-(trifluoromethyl)phenyl]-6,7-dihydropyrazolo[1,5-a]pyrazine-3-carboxamide]
  IC50: 6.92e-07 M
  Emax: 111%

## COCc1cc(NC(=O)c2cnn3c2C(=O)N(c2ccc(C(F)(F)F)cc2)C[C@@H]3C)ccn1 [compound 149]
  GTPγS - hmGluR2 anGT pIC50: 7.69
  GTPγS - hmGluR2 anGT Emax: 104%

## COCC1CN(c2ccc(C(F)(F)F)cc2)C(=O)c2c(C(=O)Nc3cnccn3)cnn21 (stereo not shown) [compound 163]
  IC50: 1.02e-08 M
  Emax: 107%
